Patent US10508113B2, “Inhibitors of tyrosine kinase 2 mediated signaling” (AbbVie Inc., priority 2018, dated 2019)

Legend:
Jak1 = target: T1, Jak1 (Homo sapiens, UniProt P23458); assay: Jak1 (PSTAT3 TF1) alpha screen assay: inhibition of IL-6 induced phosphorylation of STAT3 in TF1 cells; format: cell-based; settings: calculated from tabulated EC50 data (Jak1 / Tyk2)
T1 construct: endogenous in cells; host or cells: TF1 cells
Description: 2. JAK1 (PSTAT3 TF1) ALPHA SCREEN ASSAY
IL-6 is known to transduce its signal through IL-6 receptor via Jak1. Activity against Jak1 was therefore measured by determining inhibition of IL-6 induced phosphorylation of STAT3 in TF1 cells.
Cell Type: TF1 Cells; Culture Medium: RPMI 1640 Medium, 2mM L-glutamine, 10% heat- inactivated fetal bovine serum (FBS), 10 mM hydroxyethyl piperazineethanesulfonic acid (HEPES), and 2 ng/mL recombinant human interleukin-6(IL-6); Assay Medium: Dulbecco's Modified Eagle Medium (DMEM) medium with 2 mM L-glutamine, 10 mM HEPES, 100 U/mL penicillin/streptomycin, 1.5 g/L sodium bicarbonate, 4.5 g/L glucose, 1 mM sodium pyruvate, 10% heat-inactivated FBS; Compound Preparation: Compounds are dissolved in 100% dimethyl sulfoxide (DMSO).
Day One—Starve Cells: 4 Flasks for one 384 plate (spin down @1000 rpm for 10 minutes and add RPMI 1640 Medium, 2 mM L-glutamine, 10% FBS, 10 mM HEPES with no IL-6 -incubate overnight).
(§1) Day Two—Compound Dilutions:
i. Manual 8-point 1:5 dilution curve: 5 mM top concentration dispensed in row A of a
Corning 96-well polypropylene plate, columns 2-12. DMSO dispensed in position A01 for low and high controls. Compounds were serially diluted 1:5 by adding 10 μL stock to […] DMSO down the plate.
ii. Media dilution of compounds: Serially diluted compounds were further diluted 1:12.5 in assay medium by adding 4 μL compound to 46 μL assay medium in a Corning 96-well polypropylene plate.
384 Alpha Screen Plate Set up: Transfer 2.5 μL/well of compound solution from assay media dilution plate. Replicates were vertical, one column of the 96-well dilution plate goes into one column on the 384-well plate twice. Plated 1×10^5 starved cells/well in 5 μL. Washed cells in 10 mL DMEM medium after spinning down. Brought cell pellet up in assay media. Counted live cells. Multiplied by dilution factor and 10,000 (constant) to get the concentration of viable cells. Multiplied by volume of assay media used to bring up cells to get the total number of live cells. Divided by 20,000,000 cells/mL to get the volume needed. Cells were plated at 5 μL/well in gray Alpha Screen 384-well plate. Spinned the plate to bring the contents to the bottom of the wells at 300 rpm for 60 seconds. Top final compound concentration: 25 μM. Sealed with adhesive and tapped gently. Incubated plate at 37° C. for 30 minutes. c. IL-6 Stimulation (pSTAT3)
Once cells were in incubator, immediately prepared working stock of IL-6 (100 ng/mL final concentration). IL-6 stock=10 μg/mL of IL-6 in phosphate buffered saline with 0.1% bovine serum albumin. Diluted 1:25 by adding 60 μL stock IL-6 to 1440 μL assay media. Added 2.5 μL IL-6 to each well. Spinned plate at 300 rpm briefly; tapped the plate gently before covering with an adhesive seal. Incubated plate at 37° C. for 30 minutes.
Added 2.5 μL of 5X Lysis buffer to each well. Incubated at room temperature on orbital shaker for 10 minutes.
e. Protein (A) Acceptor Beads Preparation:
(§2) Phosphorylated Signal Transducer and Activator of Transcription 3 (pSTAT3) was quantified using the PerkinElmer SureFire pSTAT3 (Tyrosine 705) Assay. Calculated total volume needed (wells×154 μL×25%). Divided total volume by 5 to get volume of activation buffer. Subtracted volume of activation buffer from total volume and divide by 40 to get volume of acceptor beads (add last). Total volume−acceptor bead volume−activation buffer=volume of reaction buffer. Added 15 μL to each well and covered with foil. Shaked on orbital shaker for 2 hours at 500 rpm.
(§3) f. Streptavidin Donor Beads Preparation:
Calculated total volume needed (wells×[…]×25%). Divided total volume by 20 to get volume of donor beads (add last). Subtracted volume of donor beads from total volume to get volume of dilution buffer. Added 6 μL to each well and covered with foil. Shaked on orbital shaker overnight at 500 rpm.
Read plate on a Perkin Elmer Envision. […]

Jak2 = target: T2, Jak2 (Homo sapiens, UniProt O60674); assay: Jak2 (PSTATS UT7) alpha screen assay: inhibition of EPO induced phosphorylation of STAT5 in UT7 cells; format: cell-based; settings: calculated from tabulated EC50 data (Jak2 / Tyk2)
T2 construct: Cell Type: UT7 cells engineered to express the erythropoietin (EPO) receptor; endogenous in cells; host or cells: UT7 cells engineered to express the EPO receptor
T2 sequence (O60674 whole entry): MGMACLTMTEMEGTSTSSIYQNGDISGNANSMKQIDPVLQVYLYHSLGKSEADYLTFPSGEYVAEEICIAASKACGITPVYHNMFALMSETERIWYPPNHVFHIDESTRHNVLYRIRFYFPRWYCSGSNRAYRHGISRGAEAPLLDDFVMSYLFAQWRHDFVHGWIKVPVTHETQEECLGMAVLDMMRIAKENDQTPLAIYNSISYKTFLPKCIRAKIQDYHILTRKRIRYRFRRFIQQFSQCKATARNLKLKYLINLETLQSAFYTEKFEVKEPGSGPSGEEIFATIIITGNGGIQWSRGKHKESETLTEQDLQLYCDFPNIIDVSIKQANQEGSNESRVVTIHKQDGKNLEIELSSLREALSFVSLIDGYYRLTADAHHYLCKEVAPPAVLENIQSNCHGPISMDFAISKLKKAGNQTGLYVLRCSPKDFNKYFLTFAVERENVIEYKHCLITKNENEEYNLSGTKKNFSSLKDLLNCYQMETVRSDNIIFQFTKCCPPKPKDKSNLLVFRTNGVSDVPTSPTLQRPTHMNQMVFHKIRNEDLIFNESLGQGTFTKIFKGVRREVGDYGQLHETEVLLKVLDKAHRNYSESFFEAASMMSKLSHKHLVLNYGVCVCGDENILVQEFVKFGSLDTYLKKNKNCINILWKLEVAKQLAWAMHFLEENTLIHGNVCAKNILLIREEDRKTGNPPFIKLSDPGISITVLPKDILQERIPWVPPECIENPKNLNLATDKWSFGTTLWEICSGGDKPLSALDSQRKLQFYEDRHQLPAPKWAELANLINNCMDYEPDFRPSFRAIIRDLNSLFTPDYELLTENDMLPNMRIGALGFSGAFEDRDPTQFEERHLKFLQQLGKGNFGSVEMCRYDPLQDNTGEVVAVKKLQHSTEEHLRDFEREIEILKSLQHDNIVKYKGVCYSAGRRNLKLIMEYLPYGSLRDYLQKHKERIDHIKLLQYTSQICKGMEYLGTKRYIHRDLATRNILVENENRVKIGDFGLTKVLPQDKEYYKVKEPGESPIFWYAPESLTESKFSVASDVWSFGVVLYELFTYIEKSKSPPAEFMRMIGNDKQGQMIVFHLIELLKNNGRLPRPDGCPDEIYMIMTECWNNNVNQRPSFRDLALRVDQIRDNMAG
Description: 3. JAK2 (PSTATS UT7) ALPHA SCREEN ASSAY
Erythropoietin (EPO) is known to transduce its signal through EPO receptor via Jak2. Activity against Jak2 was therefore measured by determining inhibition of EPO induced phosphorylation of STATS in UT7 cells. […] Materials
Cell Type: UT7 cells engineered to express the erythropoietin (EPO) receptor; Culture Medium: Dulbecco's Modified Eagle Medium (DMEM) with 2 mM L-glutamine, 10 mM hydroxyethyl piperazineethanesulfonic acid (HEPES), 10% heat-inactivated fetal bovine serum (FBS) and Stock EPO (5000U in 250 uL, need 5U/mL, so add 250 μL to 1L of media); Assay Medium: 5% FBS ultra-low IgG and 1% Pen/Strep. Compounds were made-up in 100% dimethyl sulfoxide (DMSO).
Day One - Starve Cells: 4 Flasks for one 384 plate (spin down @1000 rpm for 10 minutes and add DMEM with no EPO).
as §1
i. Manual 8-point 1:3 dilution curve: 5 mM top concentration dispensed in row A of a
Corning 96-well polypropylene plate, columns 2-12. DMSO dispensed in position A01 for low and high controls. Compounds were serially diluted 1:3 by adding 10 μL stock to 20 μL DMSO down the plate.
ii. Media dilution of compounds: Serially diluted compounds were diluted 1:50 in assay medium by adding 4 μL compound to 196 μL assay medium in a Corning 96-well polypropylene plate.
384 Alpha Screen Plate Set up: Transferred 2.5 μL/well of compound solution from last dilution plate. Replicates were vertical, so that one column of the 96-well dilution plate goes into one column on the 384-well plate twice. Plated 1×10^5 starved cells/well in 5μL. Washed cells in 10 mL Hank's balanced salt solution (HBSS) after spinning down. Counted live cells. Multiplied by dilution factor and 10,000 (constant) to get the concentration of viable cells. Multiplied by volume of cells to get the total number of live cells. Divided by 20,000,000 cells/mL to get the volume needed. Subtracted the original volume to get the volume to be added to get the final concentration of cells. Mixed in reservoir if needed, ensuring that all cell clumps are broken up (if not broken up, they were removed from the suspension). Cells were plated at 5 μL/well in gray Alpha Screen 384-well plate. Spinned the plate to bring the contents to the bottom of the wells at 400 rpm for 2 minutes. Top final compound concentration: 25 μM. Sealed with adhesive and tapped gently. Incubated cells at 37° C. for 30 minutes.
c. EPO Stimulation (p STATS)
Once cells were in incubator, immediately prepared working stock of EPO (1 nM final assay concentration). EPO stock=2860 nM of sterile filtered liquid in sodium citrate buffer (1 liter of ddH2O containing 5.9 g of sodium citrate, 5.8 g of sodium chloride and 0.06 g of citric acid). Diluted 1:22.72 by adding 4.44 stock EPO to 95.6 pi assay media, then dilute again […] depending on how much volume is needed for the assay plates. Used assay medium to bring to volume. Added 2.5 μL EPO to each well. Spinned plate at 400 rpm briefly; tap the plate gently before covering with an adhesive seal. Cells were incubated at 37° C. for 20 minutes.
Added 2.5 μL of 5X Lysis buffer to each well. Spinned plate at 400 rpm briefly. Incubated at room temperature (on orbital shaker) for 10 minutes.
e. Protein (A) Acceptor Beads Preparation: (Light sensitive)
as §2, with “5 (pSTAT5)” for “3 (pSTAT3)”, “pSTATS” for “pSTAT3”, “694/699)” for “705)”, “(wells×15 μL×30%).” for “(wells×154 μL×25%).”, “volume - acceptor” for “volume−acceptor”, “volume - activation buffer to get volume” for “volume−activation buffer=volume”
as §3
Calculated total volume needed (wells×6μL×30%). […]

T1 sequence (P23458 whole entry): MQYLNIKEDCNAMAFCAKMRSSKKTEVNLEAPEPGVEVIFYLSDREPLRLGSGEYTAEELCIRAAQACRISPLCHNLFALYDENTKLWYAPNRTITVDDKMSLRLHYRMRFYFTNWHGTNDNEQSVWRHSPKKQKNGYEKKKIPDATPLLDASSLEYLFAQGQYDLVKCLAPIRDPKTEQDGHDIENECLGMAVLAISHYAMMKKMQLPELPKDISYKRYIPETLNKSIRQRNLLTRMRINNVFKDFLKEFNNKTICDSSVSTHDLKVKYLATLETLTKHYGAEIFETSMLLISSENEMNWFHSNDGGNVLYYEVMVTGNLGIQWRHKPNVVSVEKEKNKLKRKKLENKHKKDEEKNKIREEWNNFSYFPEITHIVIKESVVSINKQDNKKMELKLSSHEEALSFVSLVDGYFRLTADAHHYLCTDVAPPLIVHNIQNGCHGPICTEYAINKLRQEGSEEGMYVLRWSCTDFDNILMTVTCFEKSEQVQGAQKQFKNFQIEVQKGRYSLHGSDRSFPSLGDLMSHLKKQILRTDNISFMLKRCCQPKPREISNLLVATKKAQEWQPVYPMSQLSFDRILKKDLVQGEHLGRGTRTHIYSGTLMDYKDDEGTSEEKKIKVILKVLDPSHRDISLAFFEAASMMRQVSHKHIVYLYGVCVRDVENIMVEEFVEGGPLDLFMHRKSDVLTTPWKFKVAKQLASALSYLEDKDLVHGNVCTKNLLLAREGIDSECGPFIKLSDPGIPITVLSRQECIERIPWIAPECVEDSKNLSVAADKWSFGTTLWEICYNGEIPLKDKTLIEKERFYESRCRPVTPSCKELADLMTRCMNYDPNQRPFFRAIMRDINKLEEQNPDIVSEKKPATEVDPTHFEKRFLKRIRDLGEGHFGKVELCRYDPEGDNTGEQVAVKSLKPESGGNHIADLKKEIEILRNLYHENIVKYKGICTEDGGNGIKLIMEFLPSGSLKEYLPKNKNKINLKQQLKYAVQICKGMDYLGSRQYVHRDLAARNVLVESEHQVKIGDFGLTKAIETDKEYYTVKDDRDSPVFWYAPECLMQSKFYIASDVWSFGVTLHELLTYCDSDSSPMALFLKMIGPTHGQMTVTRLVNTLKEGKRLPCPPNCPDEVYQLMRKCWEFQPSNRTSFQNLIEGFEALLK

| Tyk2 selectivity over Jak1 (Jak1) | Tyk2 selectivity over Jak2 (Jak2) | SMILES |
| --- | --- | --- |
| 85-fold | >192-fold | COc1cc(-c2cn(C)c3cnc(NC(C)=O)cc23)nc([C@]2(CO)CCOC2)c1 [Example 22.6, (S)-N-(3-(6-(3-(hydroxymethyl)tetrahydrofuran-3-yl)-4-methoxypyridin-2-yl)-1-methyl-1H-pyrrolo[2,3-c]pyridin-5-yl)acetamide] |
| 22-fold | >128-fold | Cn1cc(-c2cncc([C@@]3(C)CCOC3)n2)c2cc(NC(N)=O)ncc21 [Example 1b.6, (R)-1-(1-methyl-3-(6-(3-methyltetrahydrofuran-3-yl)pyrazin-2-yl)-1H-pyrrolo[2,3-c]pyridin-5-yl)urea] |
| 563-fold | >287-fold | CO[C@@]1(c2cc(OC[C@@H](C)O)cc(-c3cn(C)c4cnc(NC(C)=O)cc34)n2)CCOC1 [Example 14.6, N-(3-(4-((R)-2-hydroxypropoxy)-6-((R)-3-methoxytetrahydrofuran-3-yl)pyridin-2-yl)-1-methyl-1H-pyrrolo[2,3-c]pyridin-5-yl)acetamide] |
| 207-fold | >126-fold | CO[C@@]1(c2cc(C)cc(-c3cn(C)c4cnc(NC(C)=O)cc34)n2)CCOC1 [Example 2.2, (R)-N-(3-(6-(3-methoxytetrahydrofuran-3-yl)-4-methylpyridin-2-yl)-1-methyl-1H-pyrrolo[2,3-c]pyridin-5-yl)acetamide] |
| 440-fold | >197-fold | CO[C@@]1(c2cc(C#N)cc(-c3cn([C@@H]4CC4(F)F)c4cnc(NC(C)=O)cc34)n2)CCOC1 [Example 2a.3, N-(3-(4-cyano-6-((R)-3-methoxytetrahydrofuran-3-yl)pyridin-2-yl)-1-((R)-2,2-difluorocyclopropyl)-1H-pyrrolo[2,3-c]pyridin-5-yl)acetamide] |
| 35-fold | >313-fold | CC(=O)Nc1cc2c(-c3cccc([C@]4(CO)CCOC4)n3)cn(C)c2cn1 [Example 21, (S)-N-(3-(6-(3-(Hydroxymethyl)tetrahydrofuran-3-yl)pyridin-2-yl)-1-methyl-1H-pyrrolo[2,3-c]pyridin-5-yl)acetamide] |
| 72-fold | >240-fold | CC[C@]1(c2cc(C#N)cc(-c3cn(C)c4cnc(NC(C)=O)cc34)n2)CCOC1 [Example 2.11, (R)-N-(3-(4-cyano-6-(3-ethyltetrahydrofuran-3-yl)pyridin-2-yl)-1-methyl-1H-pyrrolo[2,3-c]pyridin-5-yl)acetamide] |
| 66-fold | >102-fold | CO[C@@]1(c2cncc(-c3cn(C)c4cnc(NC(N)=O)cc34)n2)CCOC1 [Example 12, (R)-1-(3-(6-(3-Methoxytetrahydrofuran-3-yl)pyrazin-2-yl)-1-methyl-1H-pyrrolo[2,3-c]pyridin-5-yl)urea] |
| 98-fold | >347-fold | CC(=O)Nc1cc2c(-c3cc(C(F)F)cc([C@]4(CO)CCOC4)n3)cn(C)c2cn1 [Example 22.5, (S)-N-(3-(4-(difluoromethyl)-6-(3-(hydroxymethyl)tetrahydrofuran-3-yl)pyridin-2-yl)-1-methyl-1H-pyrrolo[2,3-c]pyridin-5-yl)acetamide] |
| 297-fold | >275-fold | CO[C@@]1(c2cc(OCCO)cc(-c3cn(C)c4cnc(NC(C)=O)cc34)n2)CCOC1 [Example 10, (R)-N-(3-(4-(2-Hydroxyethoxy)-6-(3-methoxytetrahydrofuran-3-yl)pyridin-2-yl)-1-methyl-1H-pyrrolo[2,3-c]pyridin-5)-ypacetamide] |
|  | >21-fold | COCc1cc(-c2cn(C)c3cnc(NC(C)=O)cc23)nc([C@@]2(CO)CCOC2)c1 [Example 22a, (R)-N-(3-(6-(3-(hydroxymethyl)tetrahydrofuran-3-yl)-4-(methoxymethyl)pyridin-2-yl)-1-methyl-1H-pyrrolo[2,3-c]pyridin-5-yl)acetamide] |

| SMILES | Tyk2 selectivity over Jak1 (Jak1) | Tyk2 selectivity over Jak2 (Jak2) |
| --- | --- | --- |
| CO[C@@]1(c2cc(OCC[C@H](C)O)cc(-c3cn(C)c4cnc(NC(C)=O)cc34)n2)CCOC1 [Example 9, N-(3-(4-((S)-3-Hydroxybutoxy)-6-((R)-3-methoxytetrahydrofuran-3-yl)pyridin-2-yl)-1-methyl-1H-pyrrolo[2,3-c]pyridin-5-yl)acetamide] | 494-fold | >294-fold |
